Where “and” joins values, the source holds several entries; their conditions need not be identical. Equal values may be shown once.
What was measured:
MDA-MB-453 [1] = experiment: drug sensitivity score (DSS), CellTox Green (DSS (AUC-based score)); higher = stronger drug effect (viability inhibition or cytotoxicity); extreme values may be limits of the assay; settings: incubation time: 72 h
In short: (§1)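 Plates with 384 wells held compound at 5 concentrations in 10-fold steps over a 10,000-fold range specific to each compound. Breast cancer cell lines were added in 20 µl suspension and incubated 72 h, then read for CellTox Green and CellTiter-Glo signals, with each plate normalised to 0.1 % DMSO and a positive kill control. The drug sensitivity score is based on the area under the fitted dose-response curve.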

CAL-85-1 [2] = experiment: as above; settings: incubation time: 72 h
In short: as §1

CAL-148 = experiment: as above; settings: incubation time: 72 h
In short: as §1

MCF-10A = experiment: as above; settings: incubation time: 72 h
In short: as §1

BT-474 = experiment: as above; settings: incubation time: 72 h
In short: as §1

Hs578T = experiment: as above; settings: incubation time: 72 h
In short: as §1

HCC1599 = experiment: as above; settings: incubation time: 72 h
In short: as §1

CAL-51 [3] = experiment: as above; settings: incubation time: 72 h
In short: as §1

MDA-MB-231 = experiment: as above; settings: incubation time: 72 h
In short: as §1

DU-4475 = experiment: as above; settings: incubation time: 72 h
In short: as §1

HDQ-P1 [4] = experiment: as above; settings: incubation time: 72 h
In short: as §1

HCC1143 = experiment: as above; settings: incubation time: 72 h
In short: as §1

CAL-120 [5] = experiment: as above; settings: incubation time: 72 h
In short: as §1

MDA-MB-436 = experiment: as above; settings: incubation time: 72 h
In short: as §1

BT-549 = experiment: as above; settings: incubation time: 72 h
In short: as §1

MFM-223 = experiment: as above; settings: incubation time: 72 h
In short: as §1

HCC1937 = experiment: as above; settings: incubation time: 72 h
In short: as §1

MDA-MB-468 = experiment: as above; settings: incubation time: 72 h
In short: as §1

CAL-85-1 [6] = experiment: normalised viability (% of control), CellTiter-Blue; higher = more viable cells (about 100 = DMSO control); settings: incubation time: 72 h
Procedure: (§2)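 DSRT, CellTiter-Blue viability, 72 h incubation. Signal is normalised to DMSO and benzethonium chloride controls. Value is the normalised response at dose 3.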

CAL-120 [7] = experiment: as above; settings: incubation time: 72 h
Procedure: as §2

MDA-MB-453 [8] = experiment: normalised viability (% of control), CellTiter-Blue; higher = more viable cells (about 100 = DMSO control); settings: incubation time: 72 h
In short: (§3)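 384-well plates were pre-loaded with compound in 5 µl medium before 20 µl of breast cancer cell suspension was seeded. Following 72 h incubation, 2.5 µl CellTiter-Blue reagent was added for 2 h at 37 °C. Fluorescence was read at 560/590 nm and plates were normalised to vehicle (100) and a positive kill control (0), checked by Z'-factor. Normalised viability is reported at a single listed concentration of the series.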

CAL-51 [9] = experiment: as above; settings: incubation time: 72 h
In short: as §3

HDQ-P1 [10] = experiment: as above; settings: incubation time: 72 h
In short: as §3

MDA-MB-453 [11] = settings: 72 h
In short: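 Plates of 384 wells holding compound in 5 µl medium received breast cancer cell lines in 20 µl suspension and were incubated 72 h. CellTiter-Blue (2.5 µl, 2 h, 37 °C) was used for viability, read at 560/590 nm, and every plate was normalised to vehicle and a positive kill control and assessed by Z'-factor. The EC50 derives from a percent-inhibition dose-response curve fit censored at the highest concentration, leaving out rows whose drug sensitivity score was zero.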

| SMILES | EC50, CellTiter-Blue viability (MDA-MB-453 [11]) | drug sensitivity score (MDA-MB-453 [1]) | drug sensitivity score (CAL-85-1 [2]) | drug sensitivity score (CAL-148) | drug sensitivity score (MCF-10A) | drug sensitivity score (BT-474) | drug sensitivity score (Hs578T) | drug sensitivity score (HCC1599) | drug sensitivity score (CAL-51 [3]) | drug sensitivity score (MDA-MB-231) | drug sensitivity score (DU-4475) | drug sensitivity score (HDQ-P1 [4]) | drug sensitivity score (HCC1143) | drug sensitivity score (CAL-120 [5]) | drug sensitivity score (MDA-MB-436) | drug sensitivity score (BT-549) | drug sensitivity score (MFM-223) | drug sensitivity score (HCC1937) | drug sensitivity score (MDA-MB-468) | normalised viability (CAL-85-1 [6]; 10 nM) | normalised viability (CAL-120 [7]; 100 nM) | normalised viability (MDA-MB-453 [8]; 3000 nM) | normalised viability (CAL-51 [9]; 3000 nM) | normalised viability (HDQ-P1 [10]; 3000 nM) | normalised viability (CAL-85-1 [6]; 1 nM) | normalised viability (CAL-120 [7]; 10 nM) | normalised viability (MDA-MB-453 [8]; 300 nM) | normalised viability (CAL-51 [9]; 300 nM) | normalised viability (HDQ-P1 [10]; 300 nM) |
| --- | --- | --- | --- | --- | --- | --- | --- | --- | --- | --- | --- | --- | --- | --- | --- | --- | --- | --- | --- | --- | --- | --- | --- | --- | --- | --- | --- | --- | --- |
| C/C(=C\c1csc(C)n1)[C@@H]1C[C@@H]2O[C@]2(C)CCC[C@H](C)[C@H](O)[C@@H](C)C(=O)C(C)(C)[C@@H](O)CC(=O)O1 [Patupilone] | 4.4 nM | 0 | 14.4 | 8.8 | 7.87 | 8.09 | 7.9 | 0 | 21 | 9.94 | 0 | 0 | 0.908 | 2.68 | 10.2 | 0 | 3 | 0 | 25.1 |  |  |  |  |  | 73.7% | 51.6% | 20.4% | 12.7% | 41% |
| CO[C@H]1C[C@@H]2CC[C@@H](C)[C@@](O)(O2)C(=O)C(=O)N2CCCC[C@H]2C(=O)O[C@H]([C@H](C)C[C@@H]2CC[C@@H](OCCO)[C@H](OC)C2)CC(=O)[C@H](C)/C=C(\C)[C@@H](O)[C@@H](OC)C(=O)[C@H](C)C[C@H](C)/C=C/C=C/C=C/1C [Everolimus] | 0.4 nM | 0 | 0 | 0 | 0 | 0 | 0 | 0 | 0 | 0 | 0 | 0 | 0 | 0 | 0 | 8.1 | 5.95 | 0 | 0 |  |  |  |  |  | 71.8% and 59.9% | 55.3% and 43% | 28.7% and 29.6% | 40.4% and 43.4% | 72.9% and 72.6% |
| CCCCCCCCc1ccc(CCC(N)(CO)CO)cc1 [Fingolimod] | 5400 nM | 1.86 | 7.94 | 0 | 11.1 | 5.23 | 1.46 | 0 | 1.3 | 6.51 | 0 | 2.47 | 0 | 0.861 | 2.64 | 1.17 | 0.724 | 17.9 | 6.79 | 103% | 90.7% | 95.2% | 109% | 95% |  |  |  |  |  |

Further lines, with some results ahead:

| EC50, CellTiter-Blue viability (MDA-MB-453 [11]) | SMILES | drug sensitivity score (MDA-MB-453 [1]) | drug sensitivity score (CAL-85-1 [2]) | drug sensitivity score (CAL-148) | drug sensitivity score (MCF-10A) | drug sensitivity score (BT-474) | drug sensitivity score (Hs578T) | drug sensitivity score (HCC1599) | drug sensitivity score (CAL-51 [3]) | drug sensitivity score (MDA-MB-231) | drug sensitivity score (DU-4475) | drug sensitivity score (HDQ-P1 [4]) | drug sensitivity score (HCC1143) | drug sensitivity score (CAL-120 [5]) | drug sensitivity score (MDA-MB-436) | drug sensitivity score (BT-549) | drug sensitivity score (MFM-223) | drug sensitivity score (HCC1937) | drug sensitivity score (MDA-MB-468) | normalised viability (CAL-85-1 [6]; 10 nM) | normalised viability (CAL-120 [7]; 100 nM) | normalised viability (MDA-MB-453 [8]; 3000 nM) | normalised viability (CAL-51 [9]; 3000 nM) | normalised viability (HDQ-P1 [10]; 3000 nM) | normalised viability (CAL-85-1 [6]; 1 nM) | normalised viability (CAL-120 [7]; 10 nM) | normalised viability (MDA-MB-453 [8]; 300 nM) | normalised viability (CAL-51 [9]; 300 nM) | normalised viability (HDQ-P1 [10]; 300 nM) |
| --- | --- | --- | --- | --- | --- | --- | --- | --- | --- | --- | --- | --- | --- | --- | --- | --- | --- | --- | --- | --- | --- | --- | --- | --- | --- | --- | --- | --- | --- |
| 4540 nM | Cc1ccc(NC(=O)c2ccc(CN3CCN(C)CC3)cc2)cc1Nc1nccc(-c2cccnc2)n1 [Imatinib] | 6.17 | 0 | 0 | 0 | 0 | 0.401 | 0 | 0 | 0 | 0 | 0 | 0 | 0 | 0 | 0 | 0 | 0 | 0 | 102% and 92.3% | 87.8% and 94.7% | 86.2% and 83.6% | 108% and 98.6% | 118% and 119% |  |  |  |  |  |
| 169 nM | O=C1NC(=O)[C@@H](c2cn3c4c(cccc24)CCC3)[C@@H]1c1c[nH]c2ccccc12 [Tivantinib] | 0 | 5.35 | 7.13 | 0 | 0 | 5.63 | 0 | 2.14 | 3.62 | 0 | 0 | 0 | 1.28 | 0 | 0 | 0 | 0 | 0 |  |  |  |  |  | 105% | 90.8% | 49.5% | 98.3% | 90.7% |
| 4230 nM | CN(C)CCN1C(=O)c2cccc3cc(N)cc(c23)C1=O [Amonafide] | 0 | 0 | 2.89 | 0 | 0 | 0 | 0 | 2.42 | 0 | 0 | 0 | 0 | 0 | 11.2 | 0 | 0 | 0 | 0 | 91.6% | 95.4% | 68.3% | 55.7% | 79.6% |  |  |  |  |  |
| 1430 nM | Cn1cncc1[C@@](N)(c1ccc(Cl)cc1)c1ccc2c(c1)c(-c1cccc(Cl)c1)cc(=O)n2C [Tipifarnib] | 0 | 0.98 | 0 | 0 | 0 | 0 | 0 | 10.3 | 0 | 0 | 0 | 0 | 0 | 0 | 0 | 0 | 0 | 0 | 85.3% | 57% | 50.1% | 63.4% | 66.8% |  |  |  |  |  |

From the supplement of paper PMC4862054
